Measured values as given in ChEMBL document CHEMBL3132810, “Novel benzofuranchromone and coumarin derivatives: synthesis and biological activity in K562 human leukemia cells” (Medchemcomm, 2013).
The source made the active and inactive calls. The rule behind the calls is not given here.

What was measured:
[1] = test system: K562; test: Cell cycle arrest in human K562 cells assessed as accumulation at S phase at 50 uM after 48 hrs by propidium iodide staining-based FACS -Calibur flow cytometry; assay type: functional
[2] = test system: K562; test: Induction of apoptosis in human K562 cells at 50 uM after 72 hrs; assay type: functional, cell-based
[3] = test system: K562; test: Induction of apoptosis in human K562 cells at 100 uM after 72 hrs; assay type: functional, cell-based
[4] = test system: K562; test: Anticancer activity against human K562 cells assessed as growth inhibition; assay type: functional, cell-based
[5] = test system: K562; test: Induction of apoptosis in human K562 cells at 50 uM after 48 hrs; assay type: functional
[6] = test system: K562; test: Cell cycle arrest in human K562 cells assessed as slight accumulation at G1 phase at 50 uM after 48 hrs by propidium iodide staining-based FACS -Calibur flow cytometry; assay type: functional
[7] = test system: K562; test: Cell cycle arrest in human K562 cells assessed as accumulation at G2 phase at 50 uM after 48 hrs by propidium iodide staining-based FACS -Calibur flow cytometry; assay type: functional

| SMILES | Activity [1] | Activity [5] [%] | further results |
| --- | --- | --- | --- |
| Cc1ccc2c(c1)O/C(=C\c1coc3ccccc3c1=O)C2=O | Active |  |  |
| COc1ccc2c(C=O)cc(=O)oc2c1 |  |  | Activity [2]: Active; Activity [3]: Active |
| COc1ccc(/C=C2\Oc3c(cc(OC)c(OC)c3OC)C2=O)cc1O |  |  | IC50 [4]: 50 µM |
| O=C1/C(=C/c2coc3ccc(Cl)cc3c2=O)Oc2cc3ccccc3cc21 |  | 17 |  |
| COc1cccc2occ(/C=C3\Oc4cc5ccccc5cc4C3=O)c(=O)c12 |  | 17 | Activity [6]: Active |
| Cc1ccc2occ(/C=C3\Oc4ccccc4C3=O)c(=O)c2c1 | Active |  |  |
| Cc1ccc2c(c1)O/C(=C\c1coc3ccc(F)cc3c1=O)C2=O | Active |  |  |
| COc1ccc2c(/C=C3\Oc4cc5ccccc5cc4C3=O)cc(=O)oc2c1 |  | 24 | Activity [7]: 46% |
| O=C1/C(=C/c2coc3ccccc3c2=O)Oc2ccccc21 |  | 17 |  |
| O=C1/C(=C/c2coc3ccc(F)cc3c2=O)Oc2ccccc21 | Active |  |  |
| Cc1ccc2c(c1)O/C(=C\c1coc3ccc(C)cc3c1=O)C2=O |  | 24 | Activity [6]: 72% |
| COc1ccc2c(=O)c(/C=C3\Oc4ccccc4C3=O)coc2c1 |  | 17 |  |
| COc1ccc(/C=C2\Oc3cc(C)ccc3C2=O)cc1 |  |  | Activity [2]: Active; Activity [3]: Active |
| COc1ccc(-c2cc(=O)c3cc(OC)c(OC)c(OC)c3o2)cc1O |  |  | IC50 [4]: 40 µM |
| COc1ccc2c(/C=C3\Oc4cc(C)ccc4C3=O)cc(=O)oc2c1 |  | 24 | Activity [2]: Active; Activity [3]: Active; Activity [6]: Active |
| Cc1cc2occ(/C=C3\Oc4cc5ccccc5cc4C3=O)c(=O)c2cc1C |  | 17 | Activity [6]: Active |
| Cc1ccc2c(c1)O/C(=C\c1coc3ccc(Cl)cc3c1=O)C2=O | Active |  |  |
| O=C1/C(=C/c2coc3ccc(Cl)cc3c2=O)Oc2ccccc21 | 63% |  |  |
| O=C1/C(=C/c2coc3ccccc3c2=O)Oc2cc3ccccc3cc21 |  | 17 |  |
| Cc1ccc2c(c1)O/C(=C\c1coc3cc(Cl)ccc3c1=O)C2=O | Active |  |  |
